In patent publication US7728033B2, “Mycophenolate mofetil in diabetic nephropathy” (Clinigene International Private Limited, priority 2003, dated 2010):

Legend:
[1] = tested on: patients with type 1 diabetes mellitus and diabetic nephropathy; settings: cited from earlier work
Diabetic rats = settings: 8 months; cited from earlier work
[2] = tested on: patients with lupus nephritis; settings: systemic lupus erythomatosis; 0.5 to 1.5 g/d; cited from earlier work
[3] = tested on: patients with diabetic nephropathy; experiment: 24-hour urine protein (proteinuria), open-labeled randomized study; format: in vivo, human; set-up: Mean 24 h Urine protein, 1 month after treatment at V3 / Result Difference 24 h Urine protein, V3 (1 month) vs baseline V2 / Mean 24 h Urine protein, 3 month after treatment at V4: unit not given here
Protocol: In this study, a total of 30 patients were planned of which 18 were randomized and subjected to enter into one of the studies in which the patient groups each received MMF alone, lisinopril alone, or a combination of both MMF and lisinopril.
The primary end-point for this study was the proteinuria value obtained from the patients via 24-hour urine protein which was measured using the Calorimetric method Pyrogallol Red/SDS liquid stable single reagent.
(§1) Evaluation of the effects of MMF or ACE inhibitors alone or in combination on the status of proteinuria in patients with diabetic nephropathy was an open-labeled, randomized study. This study consisted of three arms as shown below. • 1. treatment with MMF alone • 2. treatment with combination of MMF and lisinopril • 3. treatment with lisinopril alone In addition, there were three phases of the study as shown below.
Phase 2: Treatment Phase (6 months): Every patient who qualified the screening phase was assigned one of the treatment arms. During this phase, patients were monitored closely and efficacy and safety parameters are assessed every month.
(§2) Study Products and Dosage: • 1. MMF: The dose of MMF given during the study was 500 mg per oral twice a day throughout the study. • 2. Lisinopril: The starting dose of lisinopril given in the study was 5 mg per oral twice a day. In case of hypertensive patients, the dose could be titrated upwards based on investigator's discretion, which in turn was based on the patient's “safety end point”. • 3. MMF+Lisinopril: In the patients who received both the drugs, the dose of MMF was 500 mg per oral twice a day and lisinopril was 5 mg per oral twice a day. In the case of hypertensive patients, the dose of lisinopril could be titrated upwards based on investigator's discretion, which in turn was based on the patient's “safety end point”.

[4] = tested on: patients with IgA nephropathy; settings: MMF 1-1.5g per day vs Prednisone 30-40 mg per day; followed to 72 weeks; preliminary report; cited from earlier work
[5] = tested on: patients with diabetic nephropathy; experiment: Estimated GFR (Cockcroft-Gault formula), open-labeled randomized study; format: in vivo, human
Protocol: A secondary end-point for this study was the GFR value obtained for each patient. This Secondary Endpoint included Estimated GFR, which was calculated using the following formulae: […]
Once all data was collected, Glomerular Filtration Rate GFR) was determined by the Cockcroft-Gault formula.
as §1, §2

[6] = Benefited patients, MMF alone 500 mg per oral twice a day
[7] = Benefited patients, MMF alone 500 mg twice daily
[8] = Not benefited patients, MMF alone 500 mg per oral twice a day
[9] = Not benefited patients, MMF alone 500 mg twice daily
[10] = Benefited patients, lisinopril alone 5 mg twice daily
[11] = Not benefited patients, lisinopril alone 5 mg twice daily

SMILES: C[C@H](CS)C(=O)N1CCC[C@H]1C(=O)O [Captopril]
- progression of renal disease [1]: prevents or delays the progression of renal disease

SMILES: COc1c(C)c2c(c(O)c1C/C=C(\C)CCC(=O)OCCN1CCOCC1)C(=O)OC2 [MMF, mycophenolate mofetil]
- albuminuria, glomerular macrophage infiltration and glomerulosclerosis (Diabetic rats): did prevent
- effect on blood pressure, glomerular dynamics or blood glucose levels (Diabetic rats): no effect
- tolerability [2]: well tolerated
- Mean 24 h Urine protein, 1 month after treatment at V3 [3, 6]: 112.73
- Result Difference 24 h Urine protein, V3 (1 month) vs baseline V2 [3, 6]: −203.93
- Mean 24 h Urine protein, 3 month after treatment at V4 [3, 7]: 260.8
- Result Difference 24 h Urine protein, V4 (3 month) vs baseline V2 [3, 7]: −136.6
- patients with reduced proteinuria ([3]; MMF alone 500 mg twice daily, at V4 at the end of 3 months): 67%
- patients with reduced proteinuria ([3]; MMF alone, after 1 month of treatment (V3 vs V2)): 67%
- Mean 24 h Urine protein, 1 month after treatment at V3 [3, 8]: 696.3
- Result Difference 24 h Urine protein, V3 (1 month) vs baseline V2 [3, 8]: 361.7
- Mean 24 h Urine protein, 3 month after treatment at V4 [3, 9]: 305.5
- decreasing proteinuria, protecting renal function and decreasing blood lipid levels [4]: superior to Prednisone
- Mean GFR, 1 month after treatment at V3 [5, 6]: 89.3 mL/min
- Result Difference GFR, V3 (1 month) vs baseline V2 [5, 6]: 0.27 mL/min
- Mean GFR, 3 month after treatment at V4 [5, 7]: 81.85 mL/min
- Result Difference GFR, V4 (3 month) vs baseline V2 [5, 7]: -1.35 mL/min
- Mean GFR, 1 month after treatment at V3 [5, 8]: 75.26 mL/min
- Result Difference GFR, V3 (1 month) vs baseline V2 [5, 8]: 4.40 mL/min
- Mean GFR, 3 month after treatment at V4 [5, 9]: 49.9 mL/min

SMILES: NCCCC[C@H](N[C@@H](CCc1ccccc1)C(=O)O)C(=O)N1CCC[C@H]1C(=O)O [lisinopril]
- Mean 24 h Urine protein, 1 month after treatment at V3 [3, 10]: 236.66
- Mean 24 h Urine protein, 3 month after treatment at V4 [3, 10]: 161.15
- Mean 24 h Urine protein, 6 month after treatment at V5 [3, 10]: 248.4
- Result Difference 24 h Urine protein, V3 (1 month) vs baseline V2 [3, 10]: −133.6
- Result Difference 24 h Urine protein, V4 (3 month) vs baseline V2 [3, 10]: −268.75
- Result Difference 24 h Urine protein, V5 (6 month) vs baseline V2 [3, 10]: −239.6
- Mean 24 h Urine protein, 1 month after treatment at V3 [3, 11]: 211.25
- Mean 24 h Urine protein, 3 month after treatment at V4 [3, 11]: 289.2
- Mean 24 h Urine protein, 6 month after treatment at V5 [3, 11]: 626
- Result Difference 24 h Urine protein, V3 (1 month) vs baseline V2 [3, 11]: 53.73
- Result Difference 24 h Urine protein, V4 (3 month) vs baseline V2 [3, 11]: 101.47
- Result Difference 24 h Urine protein, V5 (6 month) vs baseline V2 [3, 11]: 254.2
- patients with reduced proteinuria ([3]; lisinopril alone 5 mg twice daily, at the end of 1 month): 42%
- patients with reduced proteinuria ([3]; lisinopril alone 5 mg twice daily, at the end of 3 month): 40%
- patients with reduced proteinuria ([3]; lisinopril alone 5 mg twice daily, at the end of 6 month): 50%
- Mean GFR, 1 month after treatment at V3 [5, 10]: 79.16 mL/min
- Mean GFR, 3 month after treatment at V4 [5, 10]: 89.55 mL/min
- Mean GFR, 6 month after treatment at V5 [5, 10]: 105.9 mL/min
- Result Difference GFR, V3 (1 month) vs baseline V2 [5, 10]: -0.09 mL/min
- Result Difference GFR, V4 (3 month) vs baseline V2 [5, 10]: 7.95 mL/min
- Result Difference GFR, V5 (6 month) vs baseline V2 [5, 10]: 28.5 mL/min
- Mean GFR, 1 month after treatment at V3 [5, 11]: 63.97 mL/min
- Mean GFR, 3 month after treatment at V4 [5, 11]: 68.76 mL/min
- Mean GFR, 6 month after treatment at V5 [5, 11]: 76.4 mL/min
- Result Difference GFR, V3 (1 month) vs baseline V2 [5, 11]: 1.91 mL/min
- Result Difference GFR, V4 (3 month) vs baseline V2 [5, 11]: 0.13 mL/min
- Result Difference GFR, V5 (6 month) vs baseline V2 [5, 11]: -9.4 mL/min
